Columns and labels:
[1] = refractive index (Na D-line) (dimensionless); settings: 101.33 kPa, Liquid, Standard Abbe refractometry
[2] = for mass density: 101.33 kPa, Buoyancy - hydrostatic balance; for mass density / surface tension liquid-gas: Liquid; for surface tension liquid-gas: Maximal bubble pressure; for Glass transition temperature: DTA

CC(O)C(=O)[O-].CCn1cc[n+](C)c1 [1-ethyl-3-methylimidazolium lactate]
Settings	mass density, [2] [kg/m3]	refractive index, [1]	surface tension liquid-gas, [2] [mN/m]
288.15 K	1192.9	1.5026	49.5
293.15 K	1189.8	1.5014	49.2
303.15 K	1183.4	1.4987	48.4
308.15 K	1180.1	1.4977	48
313.15 K	1176.4	1.4961	47.7
318.15 K	1173.4	1.495	47.4
323.15 K	1170.4	1.4936	47
328.15 K	1167.1	1.4926	46.6
333.15 K	1163.6	1.4913	46.3

Settings	Glass transition temperature [°C]
[2]	-81.30

CC(O)C(=O)[O-].CCCCCn1cc[n+](C)c1 [1-pentyl-3-methylimidazolium lactate]
Settings	mass density, [2] [kg/m3]	refractive index, [1]	surface tension liquid-gas, [2] [mN/m]
288.15 K	1112.6	1.494	43.1
293.15 K	1109	1.4928	42.7
303.15 K	1102.7	1.4901	42
308.15 K	1099.4	1.4891	41.5
313.15 K	1095.3	1.4875	41.2
318.15 K	1092.9	1.4864	40.9
323.15 K	1089.9	1.485	40.5
328.15 K	1086.4	1.4841	40.1
333.15 K	1083.3	1.4827	39.8

Settings	Glass transition temperature [°C]
[2]	-78.20

Source: the NIST ThermoML archive (doi:10.1016/j.jct.2013.07.008)
